Assay results published in patent US20120316203A1, “Compositions and Methods for Inhibition of Cancers” (THE OHIO STATE UNIVERSITY RESEARCH FOUNDATION, priority 2009, published 2012).

Tests used:
A2780 cells [1] = test: Cell viability by MTT assay, A2780 cells; format: cell-based, human; settings: 24 hours, dose series
Protocol: Cell viability was determined by a colorimetric assay using MTT. In the mitochondria of living cells, yellow MTT undergoes a reductive conversion to formazan, producing a purple color. Cells, grown to […] confluence in 75-mm flasks, were trypsinized, counted, seeded in 96-well plates with an average population of 7,000 cells per well, incubated overnight, and then treated with curcumin, H-4073, or HO-3867 for 24 hours. All experiments were done using eight replicates and, repeated at least thrice.

A2780 cells [2] = test: Cell-cycle analysis by flow cytometry; format: cell-based, human; settings: 6, 12, or 24 hours, versus nontreated control
Protocol: Cells were treated with HO-3867 (10 μmol/L) for 24 hours, trypsinized, washed in PBS, and fixed in an ice-cold 75% ethanol/PBS solution. The DNA was labeled with propidium iodide. Cells were sorted by flow cytometry and cell cycle profiles were determined using ModFit LT software (Becton Dickinson).
We next examined whether the growth inhibition of A2780 cells by HO-3867 was caused by cell cycle arrest. Cells were treated with HO-3867 for 6, 12, or 24 hours; fixed; and cell cycle populations were determined by flow cytometry.

[3] = test system: Bcl-xL, Bcl-2, survivin, VEGF, and cyclin D1 in A2780 cells; test: Western blot of STAT3 target proteins; format: cell-based, human; settings: 10 and 20 μmol/L, 24-hour exposure
Protocol: Equal volumes of DMSO (0.1% v/v) were present in each treatment. Following treatment, the cell lysates were prepared in non-denaturing lysis buffer containing 10 mmol/L Tris-HCl (pH 7.4), 150 mmol/L NaCl, 1% Triton X-100, 1 mmol/L EDTA, 1 mmol/L EGTA, 0.3 mmol/L phenylmethyl-sulfonyl fluoride, 0.2 mmol/L sodium orthovanadate, 0.5% NP40, 1 μg/mL aprotinin, and 1 μg/mL leupetin. The lysates were centrifuged at 10,000×g for 20 minutes at 4° C. and the supernatant was separated. The protein concentration in the lysates was determined using a Pierce detergent-compatible protein assay kit. For Western blotting, 25 to 50 μg of protein lysate per sample were denatured in 2×SDS-PAGE sample buffer and subjected to SDS-PAGE on a 10% tris-glycine gel. The separated proteins were transferred to a polyvinylidene fluoride membrane and were blocked with 5% nonfat milk powder (w/v) in TBST (10 mmol/L Tris, 10 mmol/L NaCl, 0.1% Tween 20) for 1 hour at room temperature or overnight at 4° C. The membranes were then incubated with the primary antibodies. The bound antibodies were detected with horseradish peroxidase-labeled sheep anti-mouse IgG or horseradish peroxidase-labeled donkey anti-rabbit IgG using an enhanced chemiluminescence detection system (ECL Advanced kit). Protein expressions were determined using the Image Gauge v. 3.45 software. […]

[4] = test system: A2780 human ovarian tumor xenograft; test: Ovarian cancer tumor xenografts in mice, tumor growth; format: in vivo, BALB/c nude mice; settings: 25, 50, and 100 ppm in feed, 5 weeks; dose-dependent, 50 and 100 ppm more effective
Protocol: Cultured A2780 cancer cells (2×10^6 cells in […] of PBS) were s.c. injected into the back of 6-week-old BALB/c nude mice from the National Cancer Institute. Five to 7 days later, when the tumors reached 3 to 5 mm in diameter, the mice were divided (n=9/group) in a manner to equalize the mean tumor diameter among the groups. The control group was given a normal diet (no treatment), whereas the experimental groups were treated using the DAP compounds mixed with the animal feed (Harlan Teklad) at three different levels (25, 50, and 100 ppm). The doses were chosen based on an initial dose-response study optimized to produce an observable effect on tumor growth. The size of the tumor was measured twice per week using a digital Vernier caliper. The tumor volume was determined from the orthogonal dimensions (d1, d2, d3) using the formula (d1×d2×d3)×π/6. Thirty five days after the beginning of HO-3867 treatment, the mice were sacrificed and the tumors were resected. The tumor tissues were then subjected to immunoblot analysis.

[5] = test system: A2780 and other cancer cells; test: Metabolic conversion to nitroxide in cancer cells (EPR); format: in vitro ADME, human
From the text: The N-hydroxypyrroline (—NOH) moiety is capable of undergoing a reversible one-electron oxidation to its nitroxide form (—NO; FIG. 9A), which is paramagnetic and detectable by EPR spectroscopy.

A2780 cells [6] = test: Intracellular ROS by DCF fluorescence, A2780; format: cell-based, human; settings: 5 or 10 μM, 12 h
Protocol: The ROS levels in cells treated with DAPs were determined using H2DCF-DA, a membrane-permeative fluorogenic probe. The acetate and acetoxymethyl ester groups of this probe are enzymatically cleaved inside living cells. The probe can then be oxidized by intracellular oxidants (ROS) to give a product, DCF, which emits a strong, green fluorescence (λex=504 nm; λem=529 nm). The fluorescence intensity is proportional to the level of cellular oxidants. Cells, grown to 80% confluence on 6-mm glass coverslips, were treated with […] H-4073, HO-3867, H-4318, or HO-4200 for 12 h, followed by incubation with H2DCF-DA. The cells were further incubated in the dark for 20 min and washed with protein-free medium, and then fluorescence images were immediately captured with a Nikon Eclipse TE2000-U camera system using excitation/emission at 495/520 nm. The captured images were then analyzed using MetaMorph image analysis software.

## CC1(C)C=C(CN2C/C(=C\c3ccc(F)cc3)C(=O)/C(=C/c3ccc(F)cc3)C2)C(C)(C)N1O [HO-3867, 1-[(1-oxyl-2,2,5,5-tetramethyl-2,5-dihydro-1H-pyrrol-3-yl)methyl]-(3E,5E)-3,5-bis(4-fluorobenzylidene)piperidin-4-one]
A2780 cells [1]
  cytotoxicity, viability of A2780 cells: significantly higher toxicity when compared with curcumin
A2780 cells [2]
  percentages of the cell population in the G2-M and sub-G1 phases: significantly higher
[3]
  Bcl-xL, Bcl-2, survivin, and VEGF levels: clear reduction
  cyclin D1 level: no significant change
[4]
  tumor volume: significant reduction
[5]
  EPR signal intensity of the nitroxide metabolite in A2780 cells compared to PBS: fivefold increase
[5]; 37° C., EPR
  EPR spectrum (nitroxide signal) after incubation with A2780 cells: characteristic triplet feature
A2780 cells [6]
  intracellular ROS generation (DCF fluorescence) in A2780 cells: comparable in inducing ROS generation
